Test results published in patent US20110213033A1, “SKIN CONDITIONER” (Kabushiki Kaisha Soken, priority 1998, published 2011).

Columns and labels:
atopic skin = assay: 2-hour moisture retention duration test on atopic skin; type: in vivo, human; details: FIGS. 21 through 31
Protocol: A 2-hour moisture retention duration test was performed on atopic skin.
Panelists: 7 persons with atopic skin
Test Method: Same as Test Example 2
Measurement Method: Same as Text Example 2
Test Apparatus: Same as Test Example 2

[1] = tested on: normal human skin fibroblasts; assay: Collagen production recovery test on damaged fibroblasts; type: cell-based; details: hypoxanthine/xanthine oxidase damage; samples at final concentration 3.3%, 24 hours at 37° C.; FIG. 1
Protocol: A collagen production recovery test was conducted on damaged fibroblasts. Six to eight subcultures of normal human skin fibroblasts (Physicochemical Research Institute, Cell Development Bank BIRGB) were used in the test. […] Measurement of collagen production ability of a confluent in the steady state was performed according to the method of Webster, et al. based on the uptake of ^3H-proline into the produced collagen. […] Since proline is a main component of the amino acids that compose collagen, fibroblasts are cultured in a medium containing ^3H-proline, and the ^3H activity taken up into collagen in the cells is measured. Units are in d.p.m., and represent the number of […] of radioactivity released per minute.

## N=C(N)NCCC[C@H](N)C(=O)O [L-arginine]
Atopic skin
  moisture retention duration (30 to 120 minutes after application): continuation of moisture retention was observed
[1]
  collagen production ability of fibroblasts damaged by active oxygen (3H-proline uptake into collagen): significantly improved

## NCCO [ethanolamine]
Atopic skin
  moisture retention duration (30 to 120 minutes after application): continuation of moisture retention was observed
[1]
  collagen production ability of fibroblasts damaged by active oxygen (3H-proline uptake into collagen): significantly improved
